Data set [1] concerns protein mannosyl transferases (PMTs), crude enzyme. Briefly: LUV-based (UPV) PMT activity assay: transfer of [3H]-mannose from Dol-P-Man to acceptor peptide. The note with it: for inhibition of the PMT enzyme by divalent cation chelator: LUV assay conditions (FIG. 7B). In kind it is biochemical, S. cervisiae. As for the experimental part:
The assays using the UPV method contained 20 mM Tris-HCl, pH 7.5, 10 mM MgCl2, 2.5 mM of the peptide, YNPTSV, 1.5 μl Dol-P-[^3H]-Man (approximately 0.9×10^6 cpm) “solubilized” in 100 μg POPC LUV's and 8 μg of crude enzyme (see Example 2) in a final volume of 40 μl. The assay samples were incubated for 2-30 minutes (varied per individual experiments) at 20° C. and at the end of the incubation the reaction was stopped by the addition of 10 μl 50 mM CuSO4 or 1 ml 0.1% TFA.
Assay reaction products were isolated on C18 cartridges (1 cc/100 mg Bond Elut) obtained from Varian [Homa et al. Prot. Exp. Purif., 6:141-48; 1995]. Isolation of reaction product by solvent extraction was carried out as described by Strahl-Bolsinger and Tanner [Eur. J. Biochem., 196:185-90; 1991].
As part of the characterization of the UPV PMT assay, other parameters such as the influence of detergents and ion dependence were also investigated. PMT assays (using LUVs as produced by the method in Example 3) were conducted by the methods of Example 5. Assays were performed at two concentrations of enzymes (5 and 10 μl). Buffers containing only CHAPS or CHAPS+50% glycerol were substituted for the standard Extraction Buffer used to solubilize the ezyme (see FIG. 6A). The effect of increased detergent concentration was investigated by the addition of increasing amounts of Extraction Buffer (see FIG. 6B).
Experiments were also conducted (as described immediately above) to determine whether PMTs are ion dependent. The control assay (10 mM Mg) contained LUVs made in buffer containing 10 mM MgCl2. All other assays contained LUVs prepared in buffer without MgCl2. […] Enzymol. Relat. Areas Mol. Biol., 52:23-175; 1981].

In data set [2] the test system is protein mannosyl transferases (PMTs). The note with it: detergent based assay; read-out: Km previously determined; cited from earlier work.
Data set [3] has as its system T1, acceptor peptide YNPTSV.
T1 sequence: YNPTSV

Where “and” joins values, the source holds several entries; their conditions need not be identical. Equal entries are not always repeated. Entries after “also recorded” stand apart in the source; their conditions may differ.

By Km is commonly meant the concentration of substrate that gives half-maximal velocity.

“YNPTSV (synthesized acceptor peptide) [standard synthetic acceptor peptide containing an acceptor site for PMTs]”: the Vmax entry in data set [1] (Dol-P-Man in POPC LUVs, crude enzyme preparation) is on record as “approximately 7.25 pmol min.^−1 mg protein^−1”. The Km in data set [1] (Dol-P-Man in POPC LUVs, crude enzyme preparation (yeast microsomal lysate), read-out: apparent Km for the acceptor peptide) was 1500 µM and ~1000 µM; in data set [2], 3300 µM.
Regarding `O=C(O)CN(CCOCCOCCN(CC(=O)O)CC(=O)O)CC(=O)O` [EGTA], the “inhibition of the PMT enzyme by divalent cation chelator” value in data set [1] is listed as “equally ineffective”.
For the molecule `O=C(O)CN(CCN(CC(=O)O)CC(=O)O)CC(=O)O` [EDTA], in data set [1], the “inhibition of the PMT enzyme by divalent cation chelator” value is listed as “does not inhibit the enzyme; also recorded: appears not to inhibit the enzyme”.
The same measure, in the same setting: the value for `c1cnc2c(c1)ccc1cccnc12` [orthophenanthroline] was “equally ineffective”.
For the molecule “protein mannosyl transferases (PMTs), crude detergent extract of S. cervisiae (strain BY4743) microsomal membranes”, in data set [3], the “Vmax (LUV-based PMT enzyme activity assay, crude enzyme)” value is listed as “Vmax was determined to be approximately 7.25 pmol min.^-1 mg protein^-1”; the “apparent Km (LUV-based PMT enzyme activity assay, crude enzyme)” value is “the apparent Km (using crude enzyme preparation) was determined to be approximately 1 mM”; the “apparent Km (LUV-based PMT enzyme activity assay, crude yeast microsomal lysate)” value is on record as “an apparent Km of 1.5 mM, for the acceptor peptide YNPTSV”.
